Laboratory results reported in paper PMC3959744 (Journal of medicinal chemistry, 2013).
Residue numbers refer to the chain shown, from its start. Where “and” joins values, the source holds several entries; their conditions need not be identical. Equal entries are not always repeated. Entries after “also recorded” stand apart in the source; their conditions may differ.

Columns and labels:
[1] = test system: DHT mediated AR transcription in LNCaP cells; assay: Transcriptional activation luciferase assay; type: cell-based, human; conditions: 10 μM compound, 10 nM DHT, 24 h
[2] = biological target: T1, full-length and truncated AR (AR-3) (Homo sapiens, UniProt P10275); assay: Western blot analysis of fAR and tAR-3 expression in CWR22Rv1 cells; conditions: 15 μM, 24 h
T1 sequence (P10275 1-920): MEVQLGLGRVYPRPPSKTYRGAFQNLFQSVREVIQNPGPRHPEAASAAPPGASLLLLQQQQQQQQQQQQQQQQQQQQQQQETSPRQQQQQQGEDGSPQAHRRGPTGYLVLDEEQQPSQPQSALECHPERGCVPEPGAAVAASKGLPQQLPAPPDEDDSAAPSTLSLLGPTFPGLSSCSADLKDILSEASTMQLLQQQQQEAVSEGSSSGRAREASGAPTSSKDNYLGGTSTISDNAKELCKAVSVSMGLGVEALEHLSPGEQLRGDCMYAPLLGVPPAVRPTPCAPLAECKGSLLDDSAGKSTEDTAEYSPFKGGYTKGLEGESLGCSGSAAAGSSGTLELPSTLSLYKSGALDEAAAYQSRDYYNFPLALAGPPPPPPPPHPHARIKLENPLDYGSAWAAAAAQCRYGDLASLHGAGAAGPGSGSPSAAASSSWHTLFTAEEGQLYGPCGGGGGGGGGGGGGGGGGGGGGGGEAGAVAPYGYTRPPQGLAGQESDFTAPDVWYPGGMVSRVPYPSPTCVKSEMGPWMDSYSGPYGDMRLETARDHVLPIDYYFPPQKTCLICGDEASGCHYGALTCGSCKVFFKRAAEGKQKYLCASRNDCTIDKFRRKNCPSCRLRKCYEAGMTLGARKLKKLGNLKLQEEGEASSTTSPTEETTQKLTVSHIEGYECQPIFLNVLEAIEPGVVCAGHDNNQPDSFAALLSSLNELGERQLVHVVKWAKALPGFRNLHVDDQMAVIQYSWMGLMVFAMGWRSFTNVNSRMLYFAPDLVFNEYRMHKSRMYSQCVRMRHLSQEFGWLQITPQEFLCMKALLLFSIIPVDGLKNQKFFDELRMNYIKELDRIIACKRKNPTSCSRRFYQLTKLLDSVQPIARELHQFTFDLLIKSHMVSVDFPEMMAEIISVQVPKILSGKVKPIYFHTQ

[3] = Solubility in ethanol or DMSO; type: physicochemical; conditions: prevented biological testing
LNCaP cells = assay: Cell growth inhibition; type: cell-based, human
AR [4] = biological target: T2, AR (Homo sapiens, UniProt P10275, T878A); type: cell-based; conditions: LNCaP cells, 15 μM, 24 h, Western blot
T2 sequence (P10275 1-920 T878A): T1 sequence (P10275 1-920) with T878A

AR [5] = biological target: T2, AR; assay: Immunocytochemical analysis of AR expression in LNCaP cells; conditions: 5 μM, 48 h

SMILES | inhibition of DHT mediated transcription [1] | effect on AR protein expression (AR degradation / ARD activity) (AR [4]) | other results
C[C@]12CCC(=NO)C=C1CC[C@@H]1[C@@H]2CC[C@]2(C)C(n3cnc4ccccc43)=CC[C@@H]12 (mixture of isomers) [Compound 36, 3-((EZ)-Hydroximino)-17-(1H-Benzimidazol-1-yl)-androsta-4,16-diene] | 65–100% | – | effect on full-length and truncated AR (AR-3) expression [2]: could degrade both full-length and truncated AR; also recorded: significant down-regulation of both full-length and truncated AR
C[C@]12CC/C(=N\Oc3ccccc3)C=C1CC[C@@H]1[C@@H]2CC[C@]2(C)C(n3cnc4ccccc43)=CC[C@@H]12 (mixture of isomers) [Compound 37, 3-((EZ)-O-Phenyloxime)-17-(1H-Benzimidazol-1-yl)-androsta-4,16-diene] | – | – | solubility in ethanol or DMSO [3]: limited solubility in ethanol or DMSO
CO/N=C1/C=C2CC[C@@H]3[C@H](CC[C@]4(C)C(n5cnc6ccccc65)=CC[C@@H]34)[C@@]2(C)CC1 (mixture of isomers) [Compound 38, 3-((EZ)-O-Methyloxime)-17-(1H-Benzimidazol-1-yl)-androsta-4,16-diene] | 65–100% | – | –
C[C@]12CC/C(=N\OCc3ccccc3)C=C1CC[C@@H]1[C@@H]2CC[C@]2(C)C(n3cnc4ccccc43)=CC[C@@H]12 (mixture of isomers) [Compound 39, 3-((EZ)-(O-Phenylmethyl)oxime)-17-(1H-Benzimidazol-1-yl)-androsta-4,16-diene] | 65–100% | – | –
C[C@]12CC[C@H](O)CC1=CC[C@@H]1[C@@H]2CC[C@]2(C)C(n3cnc4cc(C#N)ccc43)=CC[C@@H]12 [Compound 18, 3β-Hydroxy-17-(5(6)-nitrile-1H-benzimidazol-1-yl)-androsta-5,16-diene] | – | diminished AR down-regulation (ARD) activity | GI50 (LNCaP cells; read-out: GI50, C-17 modified compounds, MTT, 7 days, at least three independent experiments, SEM < 10%): 2810 nM
COc1ccc2ncn(C3=CC[C@H]4[C@@H]5CC=C6C[C@@H](O)CC[C@]6(C)[C@H]5CC[C@]34C)c2c1 [Compound 19, 3β-Hydroxy-17-(6-methoxy-1H-benzimidazol-1-yl)-androsta-5,16-diene] | – | no modulation of ARDA | –
CC(C)CCNCC1=C(n2cnc3ccccc32)[C@@]2(C)CC[C@H]3[C@@H](CC=C4C[C@@H](O)CC[C@@]43C)[C@@H]2C1 [Compound 25, 3β-Hydoxy-17-(1H-benzimidazol-1-yl)-16-((isopentylamino)methyl)-androsta-5,16-diene] | 65–100% | significant loss of ARD | –
C[C@]12CC[C@H](O)CC1=CC[C@@H]1[C@@H]2CC[C@]2(C)C(n3cnc4ccccc43)=C(CNc3ccccc3)C[C@@H]12 [Compound 28, 3β-Hydoxy-17-(1H-benzimidazol-1-yl)-16-((phenylamino)methyl)-androsta-5,16-diene] | 65–100% | significant loss of ARD | –
COc1ccc(NCC2=C(n3cnc4ccccc43)[C@@]3(C)CC[C@H]4[C@@H](CC=C5C[C@@H](O)CC[C@@]54C)[C@@H]3C2)cc1OC [Compound 31, 3β-Hydoxy-17-(1H-benzimidazol-1-yl)-16-(((3,4-dimethoxyphenyl)amino)methyl)-androsta-5,16-diene] | – | significant loss of ARD | effect on full-length and truncated AR (AR-3) expression [2]: significant down-regulation of both full-length and truncated AR
C[C@]12CC[C@H](OS(C)(=O)=O)CC1=CC[C@@H]1[C@@H]2CC[C@]2(C)C(n3cnc4ccccc43)=CC[C@@H]12 [Compound 34, 3β-Mesyloxy-17-(1H-benzimidazol-1-yl)-androsta-5,16-dien] | 65–100% | – | –
C[C@]12CC[C@H](OC(=O)c3ccccn3)CC1=CC[C@@H]1[C@@H]2CC[C@]2(C)C(n3cnc4ccccc43)=CC[C@@H]12 [Compound 41, 3β-(Pyridine-2-carboxylate)-17-(1H-benzimidazol-1-yl)-androsta-5,16-diene] | – | – | solubility in ethanol or DMSO [3]: limited solubilities in ethanol or DMSO
C[C@]12CC[C@H](OC(=O)c3cccnc3)CC1=CC[C@@H]1[C@@H]2CC[C@]2(C)C(n3cnc4ccccc43)=CC[C@@H]12 [Compound 42, 3β-(Pyridine-3-carboxylate)-17-(1H-benzimidazol-1-yl)-androsta-5,16-diene] | – | – | solubility in ethanol or DMSO [3]: limited solubilities in ethanol or DMSO
C[C@]12CC[C@H](OC(=O)c3ccncc3)CC1=CC[C@@H]1[C@@H]2CC[C@]2(C)C(n3cnc4ccccc43)=CC[C@@H]12 [Compound 43, 3β-(Pyridine-4-carboxylate)-17-(1H-benzimidazol-1-yl)-androsta-5,16-diene] | – | – | effect on full-length and truncated AR (AR-3) expression [2]: could degrade both full-length and truncated AR
C[C@]12CC[C@H](OC(=O)n3ccnc3)CC1=CC[C@@H]1[C@@H]2CC[C@]2(C)C(n3cnc4ccccc43)=CC[C@@H]12 [Compound 47, 3β-(1H-Imidazole-1-carboxylate)-17-(1H-benzimidazol-1-yl)-androsta-5,16-diene] | 65–100% | most potent | fold more potent than compound 5, anti-proliferative activity (LNCaP cells; from GI50): 4 fold and ~ 4 fold; AR levels in the nucleus (AR [5]): significant decrease in AR levels in the nucleus; effect on full-length and truncated AR (AR-3) expression [2]: could degrade both full-length and truncated AR; also recorded: significant down-regulation of both full-length and truncated AR
Cc1nccn1C(=O)O[C@H]1CC[C@@]2(C)C(=CC[C@@H]3[C@@H]2CC[C@]2(C)C(n4cnc5ccccc54)=CC[C@@H]32)C1 [Compound 48, 3β-(2-Methyl-1H-imidazole-1-carboxylate)-17-(1H-benzimidazol-1-yl)-androsta-5,16-diene] | – | – | fold decrease in anti-proliferative activity relative to 47 (LNCaP cells; from GI50): 6 fold
C[C@]12CC[C@H](OC(=O)n3cncn3)CC1=CC[C@@H]1[C@@H]2CC[C@]2(C)C(n3cnc4ccccc43)=CC[C@@H]12 [Compound 49, 3β-(1H-1,2,4-Triazole-1-carboxylate)-17-(1H-benzimidazol-1-yl)-androsta-5,16-diene] | – | significant up-regulation of AR | –
